From US8551978B2 (Theravance, Inc., priority 2009, dated 2013)
pEC50, pKi: −log10 of the molar value. Counter-ions that a name gives are not always drawn. Like-named read-outs stand apart in the source and are kept apart here.

Assays:
[1] = biological target: hβ2 adrenergic receptor (Homo sapiens (Human), UniProt P07550); test: Assay for determining adrenergic receptor agonist potency (cAMP Flashplate, HEK-293 cells); assay type: cell-based; conditions: data rounded to nearest 1 nM
Method: The cell monolayer was lifted with 2 mM EDTA in PBS. Cells were pelleted by centrifugation at 1,000 rpm, and cell pellets were either stored frozen at −80° C. or membranes were prepared immediately for use. cAMP assays were performed in a radioimmunoassay format using the Flashplate Adenylyl Cyclase Activation Assay System with [^125I]-cAMP (NEN SMP004, PerkinElmer Life Sciences Inc., Boston, Mass.), according to the manufacturers instructions. […] Cells were rinsed with PBS and detached in dPBS (Dulbecco's Phosphate Buffered Saline, without CaCl2 and MgCl2) containing 2 mM EDTA or Trypsin-EDTA solution (0.05% trypsin/0.53 mM EDTA). After counting cells in Coulter cell counter, cells were pelleted by centrifugation at 1,000 rpm and re-suspended in stimulation buffer containing TBMX (PerkinElmer Kit) pre-warmed to room temperature to a concentration of 1.6×10^6 to 2.8×10^6 cells/mL. About 40,000 to 80,000 cells per well were used in this assay. […] Reactions were incubated for 10 min at 37° C. and stopped by adding 100 μL of cold detection buffer containing [^125I]-cAMP (NEN SMP004, PerkinElmer Life Sciences, Boston, Mass.). […] Data were analyzed by nonlinear regression analysis with the GraphPad Prism Software package (GraphPad Software, Inc., San Diego, Calif.) with the sigmoidal equation. The Cheng-Prusoff equation (Cheng Y, and Prusoff W H., Biochemical Pharmacology, 1973, 22, 23, 3099-108) was used to calculate the EC50 values.

[2] = biological target: hM3 muscarinic receptor (Homo sapiens (Human), UniProt P20309); test: Radioligand binding assay for muscarinic receptors ([3H]-NMS displacement, CHO cell membranes)
Method: The cells were grown in a 5% CO2, 37° C. incubator and lifted with 2 mM EDTA in dPBS. Cells were collected by 5 minute centrifugation at 650×g, and cell pellets were either stored frozen at −80° C. or membranes were prepared immediately for use. For membrane preparation, cell pellets were resuspended in lysis buffer and homogenized with a Polytron PT-2100 tissue disrupter (Kinematica AG; 20 seconds×2 bursts). Crude membranes were centrifuged at 40,000×g for 15 minutes at 4° C. The membrane pellet was then resuspended with re-suspension buffer and homogenized again with the Polytron tissue disrupter. The protein concentration of the membrane suspension was determined by the method described in Lowry et al., 1951, […], 193, 265. All membranes were stored frozen in aliquots at −80° C. or used immediately. […] The membranes were briefly homogenized using a Polytron tissue disruptor (10 seconds) prior to assay plate addition. […] The test compounds were initially dissolved to a concentration of 400 μM in dilution buffer and then serially diluted 5× with dilution buffer to final concentrations ranging from 10 μM to […]. The order of addition and volumes added to the assay plates were as follows: 25 μL radioligand, 25 μL diluted test compound, and 50 μL membranes. Assay plates were incubated for 6 hours at 37° C. […] Filter plates were rinsed three times with wash buffer (10 mM HEPES) to remove unbound radioactivity. The plates were then air-dried and 50 μL Microscint-20 liquid scintillation fluid (PerkinElmer, Inc.) were added to each well. The plates were then counted in a PerkinElmer Topcount liquid scintillation counter (PerkinElmer, Inc.). Binding data were analyzed by nonlinear regression analysis with the GraphPad Prism Software package (GraphPad Software, Inc., San Diego, Calif.) using the one-site competition model. […] These summary statistics were then converted back to K; values for data reporting.

[3] = system: MCh-induced bronchoconstriction; test: Einthoven assay: bronchoprotection against methacholine (MCh)-induced bronchoconstriction; assay type: in vivo, rat; conditions: for inhibition in vivo at 0.1 mg: inhaled or nasal, read-out: Broncho. at 24 h
Method: This assay measures the ability of a test compound to provide bronchoprotection against methacholine (MCh)-induced bronchoconstriction in a rat. Male Sprague-Dawley rats (Harlan, Indianapolis, Ind.), weighing between 200 g and 350 g, were used for all studies. Test compound or vehicle (sterile deionized water) were dosed by inhalation (1H) over a 10 min period in a pie shaped inhalation chamber (R+S Molds, San Carlos, Calif.) using 5 mL of dosing solution. […] Rats were dosed with 100 μg of test compound unless otherwise indicated. At predetermined time points, rats were anesthetized with an intraperitoneal (IP) injection of 120 mg/kg inactin (thiobutabarbital). A supplemental dose (40 mg/kg, IP) was administered if the animal responded to physical stimuli (e.g. toe pinch). The surgical site was shaved and a 1-2 cm midline incision of the ventral aspect of the neck was made. The jugular vein was isolated and cannulated with a saline-filled polyethylene catheter (PE-50) to allow IV infusion of MCh. Trachea was dissected free and cannulated with a 14G needle (#NE-014, Small Parts, Miami Lakes, Fla.). After placement of the tracheal cannula, each rat was ventilated using a respirator (Model 683, Harvard Apparatus, Inc., MA) set at a stroke volume of 1 mL/100 g body weight (but not exceeding 2.5 mL volume) and a rate of 90 strokes per minute. A T-connector was placed along the respirator expiratory tubing to allow for measurement of changes in ventilation pressure (VP) using a Biopac transducer that was connected to a Biopac […]) pre-amplifier. Body temperature was maintained at 37° C. using a heating pad. Changes in VP were recorded using the Acknowledge Data Collection Software (Santa Barbara, Calif.). Baseline values were collected for at least 2.5 min. Rats were then challenged with non-cumulative intravenous (IV) infusions of 40 and 80 μg/kg MCh. MCh was infused intravenously for 2.5 minutes from a syringe pump (sp210iw, World Precision Instruments, Inc., Sarasota, Fla.) at a rate of 2 mL/kg/min, with a 2 minute interval between the two doses of MCh. Changes in ventilation pressure (cm H2O) in treated animals are expressed as % inhibition of MCh response relative to control animals. Other bronchoconstrictors, such as histamine and acetylcholine, can be used in place of MCh in this assay. Additionally, guinea pigs can be used instead of rats. […] Inhibition greater than or equal to 30 percent at 24 h is indicative of a long duration of action.

[4] = rat, 100 μg by inhalation, 24 h after administration
[5] = hM3 Muscarinic Receptor Binding, data rounded to nearest 0.1 nM

Sequence of hM3 muscarinic receptor (P20309 whole entry): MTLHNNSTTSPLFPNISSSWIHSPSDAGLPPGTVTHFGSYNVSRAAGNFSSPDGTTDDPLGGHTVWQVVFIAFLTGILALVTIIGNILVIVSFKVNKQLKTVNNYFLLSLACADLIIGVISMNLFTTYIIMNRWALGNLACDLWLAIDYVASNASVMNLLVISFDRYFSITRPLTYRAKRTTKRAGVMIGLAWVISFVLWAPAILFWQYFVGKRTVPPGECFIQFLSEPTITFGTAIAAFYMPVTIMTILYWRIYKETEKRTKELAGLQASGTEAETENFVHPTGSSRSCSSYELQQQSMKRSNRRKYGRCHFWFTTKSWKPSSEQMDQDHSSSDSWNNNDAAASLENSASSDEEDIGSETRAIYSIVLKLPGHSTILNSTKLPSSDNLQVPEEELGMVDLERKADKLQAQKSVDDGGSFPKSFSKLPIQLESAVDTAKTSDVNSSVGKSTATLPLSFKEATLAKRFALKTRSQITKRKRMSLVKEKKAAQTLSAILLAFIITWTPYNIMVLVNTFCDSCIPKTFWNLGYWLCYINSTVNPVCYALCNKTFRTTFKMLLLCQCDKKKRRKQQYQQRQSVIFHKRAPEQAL
Sequence of hβ2 adrenergic receptor (P07550 whole entry): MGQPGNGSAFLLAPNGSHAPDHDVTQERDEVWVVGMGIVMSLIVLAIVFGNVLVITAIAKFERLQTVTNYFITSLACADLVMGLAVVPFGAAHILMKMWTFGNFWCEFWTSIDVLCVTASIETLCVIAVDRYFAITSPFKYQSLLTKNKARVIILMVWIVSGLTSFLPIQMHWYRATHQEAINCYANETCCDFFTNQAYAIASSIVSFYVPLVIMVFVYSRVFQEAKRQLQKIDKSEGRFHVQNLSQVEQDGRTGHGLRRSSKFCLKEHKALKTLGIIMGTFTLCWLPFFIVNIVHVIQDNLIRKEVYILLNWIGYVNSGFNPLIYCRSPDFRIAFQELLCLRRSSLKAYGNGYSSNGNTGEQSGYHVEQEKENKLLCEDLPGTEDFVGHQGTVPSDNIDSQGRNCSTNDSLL

Row | SMILES | pEC50 [1] | pKi [2] | inhibition in vivo at 0.1 mg [3, 4] | pKi [2, 5] | Broncho. at 24 h [3, 4] | inhibition in vivo at 0.1 mg ([3]; Rattus norvegicus, 24 h)
1 | COc1cc(CNC[C@H](O)c2ccc(O)c3[nH]c(=O)ccc23)ccc1NC(=O)CCCCN(C)C(=O)CCN1CCC(OC(=O)Nc2ccccc2-c2ccccc2)CC1 [Compound I-16] | 9.00 | 10.00 | > 30% | – | – | –
2 | COc1ccc(CC(=O)NCc2ccc(N(C)C(=O)CCN3CCC(OC(=O)Nc4ccccc4-c4ccccc4)CC3)cc2)cc1C[C@H](C)NC[C@H](O)c1ccc(O)c2[nH]c(=O)ccc12 [Compound I-83] | 8.70 | – | > 30% | 9.70 | – | –
3 | Cc1ccc(C(=O)Nc2ccc(CC(C)NC[C@H](O)c3ccc(O)c4[nH]c(=O)ccc34)cc2)cc1N(C)C(=O)CCN1CCC(OC(=O)Nc2ccccc2-c2ccccc2)CC1 (stereo partly drawn) [Compound I-41] | 9.00 | – | – | 9.52 | No | –
4 | C[C@H](Cc1cccc(CNC(=O)Cc2ccc(N(C)C(=O)CCN3CCC(OC(=O)Nc4ccccc4-c4ccccc4)CC3)cc2)c1)NC[C@H](O)c1ccc(O)c2[nH]c(=O)ccc12 [Compound I-68] | 9.00 | 10.00 | > 30% | – | – | –
5 | Cc1cc(CNC[C@H](O)c2ccc(O)c3[nH]c(=O)ccc23)ccc1NC(=O)c1ccc(C)c(N(C)C(=O)CCN2CCC(OC(=O)Nc3ccccc3-c3ccccc3)CC2)c1 [Compound I-28] | 9.00 | 9.70 | – | – | No | –
6 | Cc1cc(CNC[C@H](O)c2ccc(O)c3[nH]c(=O)ccc23)ccc1NC(=O)CCCN(C)C(=O)CCN1CCC(OC(=O)Nc2ccccc2-c2ccccc2)CC1 [Compound I-2] | 9.00 | 10.00 | – | – | No | –
7 | CC(Cc1ccc(CC(=O)Nc2cccc(N(C)C(=O)CCN3CCC(OC(=O)Nc4ccccc4-c4ccccc4)CC3)c2)cc1)NC[C@H](O)c1ccc(O)c2[nH]c(=O)ccc12 (stereo partly drawn) [Compound I-53] | 9.00 | 10.00 | – | – | No | –
8 | CC(Cc1cccc(CNC(=O)c2cccc(N(C)C(=O)CCN3CCC(OC(=O)Nc4ccccc4-c4ccccc4)CC3)c2)c1)NC[C@H](O)c1ccc(O)c2[nH]c(=O)ccc12 (stereo partly drawn) [Compound I-44] | 9.00 | 10.00 | – | – | No | –
9 | Cc1cc(CNC[C@H](O)c2ccc(O)c3[nH]c(=O)ccc23)ccc1NC(=O)CCCCN(C)C(=O)CCN1CCC(OC(=O)Nc2ccccc2-c2ccccc2)CC1 [Compound I-15] | 9.00 | 10.00 | > 30% | – | – | –
10 | Cc1cc(NC(=O)c2cccc(N(C)C(=O)CCN3CCC(OC(=O)Nc4ccccc4-c4ccccc4)CC3)c2)c(C)cc1CNC[C@H](O)c1ccc(O)c2[nH]c(=O)ccc12 [Compound I-30] | 9.00 | 9.70 | – | – | No | –
11 | C[C@H](Cc1cccc(NC(=O)c2cccc(N(C)C(=O)CCN3CCC(OC(=O)Nc4ccccc4-c4ccccc4)CC3)c2)c1)NC[C@H](O)c1ccc(O)c2[nH]c(=O)ccc12 [Compound I-38] | 9.00 | 9.70 | – | – | No | –
12 | CN(C(=O)CCN1CCC(OC(=O)Nc2ccccc2-c2ccccc2)CC1)c1ccc(CC(=O)NCc2cccc(CCNC[C@H](O)c3ccc(O)c4[nH]c(=O)ccc34)c2)cc1 [Compound I-65] | 9.00 | 10.00 | > 30% | – | – | –
13 | COc1cc(NC(=O)CCCCN(C)C(=O)CCN2CCC(OC(=O)Nc3ccccc3-c3ccccc3)CC2)ccc1CNC[C@H](O)c1ccc(O)c2[nH]c(=O)ccc12 [Compound I-17] | 9.00 | 10.00 | > 30% | – | – | –
14 | Cc1ccc(C(=O)NCc2cccc(CC(C)NC[C@H](O)c3ccc(O)c4[nH]c(=O)ccc34)c2)cc1N(C)C(=O)CCN1CCC(OC(=O)Nc2ccccc2-c2ccccc2)CC1 (stereo partly drawn) [Compound I-45] | 9.00 | – | – | 9.70 | No | –
15 | CC(Cc1ccc(F)c(CC(=O)NCc2ccc(N(C)C(=O)CCN3CCC(OC(=O)Nc4ccccc4-c4ccccc4)CC3)cc2)c1)NC[C@H](O)c1ccc(O)c2[nH]c(=O)ccc12 (stereo partly drawn) [Compound I-95] | 9.00 | 9.70 | > 30% | – | – | –
16 | CN(CCCCC(=O)Nc1ccc(CNC[C@H](O)c2ccc(O)c3[nH]c(=O)ccc23)cc1)C(=O)CCN1CCC(OC(=O)Nc2ccccc2-c2ccccc2)CC1 [Compound I-14, Biphenyl-2-ylcarbamic Acid 1-(2-{[4-(4-{[(R)-2-hydroxy-2-(8-hydroxy-2-oxo-1,2-dihydroquinolin-5-yl)ethylamino]methyl}phenylcarbamoyl)-butyl]methylcarbamoyl}ethyl)piperidin-4-yl Ester Ditrifluoroacetic Acid Salt] | 9.00 | 10.00 | – | – | – | > 30%
17 | COc1ccc(CC(=O)NCc2ccc(N(C)C(=O)CCN3CCC(OC(=O)Nc4ccccc4-c4ccccc4)CC3)cc2)cc1C[C@@H](C)NC[C@H](O)c1ccc(O)c2[nH]c(=O)ccc12 [Compound I-82] | 9.00 | – | > 30% | 10.00 | – | –
18 | COc1cc(NC(=O)CCCN(C)C(=O)CCN2CCC(OC(=O)Nc3ccccc3-c3ccccc3)CC2)ccc1CNC[C@H](O)c1ccc(O)c2[nH]c(=O)ccc12 [Compound I-4] | 8.70 | – | > 30% | 10.00 | – | –
19 | C[C@H](Cc1cccc(CC(=O)NCc2ccc(N(C)C(=O)CCN3CCC(OC(=O)Nc4ccccc4-c4ccccc4)CC3)cc2)c1)NC[C@H](O)c1ccc(O)c2[nH]c(=O)ccc12 [Compound I-78] | 9.00 | 9.52 | > 30% | – | – | –
